The values below come from US9855268B2, “Triazolo[4,5-d]pyrimidine derivatives” (Merck Patent GmbH, priority 2013, dated 2018).

This assay addresses GCN2 (Homo sapiens, UniProt Q9P2K8). Put plainly: GCN2 enzyme assay (TR-FRET Lanthascreen, GFP-eIF2alpha phosphorylation). Type of assay: biochemical. To be noted: 10 μM ATP, 80 nM GFP-eIF2a, 30 nM GCN2. From the text: GCN2: Assay Principle & Conditions
This assay can quantificate the activity of the serin kinase GCN2 (general control non-derepressible-2).
This kinase is involved in the stress metabolism of cells. It is activated upon starvation (amino acid depletion). Its natural substrate is eIF2a (eukaryotic initiation factor 2 alpha subunit), a translation factor, which gets activated (phosphorylated) by GCN2 in case of an amino acid bottleneck in the cells. This in turn leads to a halt of the protein synthesis. Inhibition of GCN2 results in stopping this mechanism: The cell can not stop protein production upon “starvation” stress.
The assay is run in two steps: the enzymatic reaction and the detection step. In the first step GCN2 is incubated with 10 μM ATP and 80 nM of the GFP-labelled substrate eIF2alpha at room temperature.
The enzymatic reaction is stopped by addition of EDTA. The amount of phosphorylated eIF2alpha is determined by TR-FRET (Lanthascreen): A complex is formed consisting of antibody and GFP labelled phospho-eIF2a, which allows a FRET upon exitation at 340 nm.
Final Concentrations in the Enzymatic Reaction

SMILES strings stand for the structures. Where a name gives a salt, the structure may show the parent alone. Where only a bound is given, the exact number is not on record here.

GCN2, sequence (Q9P2K8 whole entry, species assumed): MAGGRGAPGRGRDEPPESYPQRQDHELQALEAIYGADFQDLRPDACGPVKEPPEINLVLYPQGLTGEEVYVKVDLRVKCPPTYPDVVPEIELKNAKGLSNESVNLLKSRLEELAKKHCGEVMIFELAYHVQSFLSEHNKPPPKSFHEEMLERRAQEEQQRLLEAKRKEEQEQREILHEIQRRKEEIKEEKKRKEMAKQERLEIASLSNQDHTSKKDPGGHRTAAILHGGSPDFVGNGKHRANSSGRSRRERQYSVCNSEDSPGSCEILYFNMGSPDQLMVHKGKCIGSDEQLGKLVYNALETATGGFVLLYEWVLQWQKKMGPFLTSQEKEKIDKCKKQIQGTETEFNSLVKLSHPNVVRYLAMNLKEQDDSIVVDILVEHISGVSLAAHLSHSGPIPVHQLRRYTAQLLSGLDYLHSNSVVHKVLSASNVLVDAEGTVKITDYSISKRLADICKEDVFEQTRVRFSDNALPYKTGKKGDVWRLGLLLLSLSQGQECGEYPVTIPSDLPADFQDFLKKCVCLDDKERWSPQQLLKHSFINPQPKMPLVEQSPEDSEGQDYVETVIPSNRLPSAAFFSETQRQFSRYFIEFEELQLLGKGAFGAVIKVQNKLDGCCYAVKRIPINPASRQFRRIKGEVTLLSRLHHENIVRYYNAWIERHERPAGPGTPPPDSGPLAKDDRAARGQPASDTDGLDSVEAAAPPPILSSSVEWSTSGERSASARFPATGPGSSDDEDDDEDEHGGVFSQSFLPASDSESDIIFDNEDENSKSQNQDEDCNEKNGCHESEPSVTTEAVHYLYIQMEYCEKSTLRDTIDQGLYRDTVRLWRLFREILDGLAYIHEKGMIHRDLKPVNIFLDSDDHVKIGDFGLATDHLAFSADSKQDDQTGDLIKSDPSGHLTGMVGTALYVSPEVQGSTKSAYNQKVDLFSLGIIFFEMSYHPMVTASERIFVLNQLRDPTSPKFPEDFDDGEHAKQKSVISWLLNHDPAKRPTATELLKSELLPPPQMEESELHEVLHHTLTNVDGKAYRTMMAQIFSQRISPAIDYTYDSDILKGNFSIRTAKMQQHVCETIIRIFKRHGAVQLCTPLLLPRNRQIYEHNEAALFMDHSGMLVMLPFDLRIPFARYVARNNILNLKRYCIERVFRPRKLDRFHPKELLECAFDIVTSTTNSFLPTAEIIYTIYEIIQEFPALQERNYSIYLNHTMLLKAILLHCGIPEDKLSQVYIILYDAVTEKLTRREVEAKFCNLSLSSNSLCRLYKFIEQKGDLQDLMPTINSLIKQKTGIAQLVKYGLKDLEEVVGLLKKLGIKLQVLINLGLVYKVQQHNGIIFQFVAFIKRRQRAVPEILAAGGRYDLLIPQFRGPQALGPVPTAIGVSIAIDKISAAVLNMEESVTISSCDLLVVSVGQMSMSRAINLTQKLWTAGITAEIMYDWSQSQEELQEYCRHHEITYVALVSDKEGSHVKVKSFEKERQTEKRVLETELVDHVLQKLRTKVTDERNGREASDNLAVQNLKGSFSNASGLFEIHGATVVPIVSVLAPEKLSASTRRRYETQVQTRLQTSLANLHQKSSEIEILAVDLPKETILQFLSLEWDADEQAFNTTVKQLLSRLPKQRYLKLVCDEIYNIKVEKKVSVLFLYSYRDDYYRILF

The compound `NC(=O)[C@@H]1CC[C@@H](Nc2ncc3nnn(-c4ccc(N5CCOCC5=O)c(F)c4)c3n2)C1` [A154, (1R,3R)-3-{3-[3-fluoro-4-(3-oxo-morpholin-4-yl)-phenyl]-3H-[1,2,3]triazolo[4,5-d]pyrimidin-5-ylamino}-cyclopentanecarboxylic acid amide] returned a half-inhibitory concentration (IC50) below 1000 nM.
The compound `CCn1cc(-c2ccc(-n3nnc4cnc(N[C@H]5CC[C@H](N)CC5)nc43)cc2)cn1` [A54, N-{3-[4-(1-ethyl-1H-pyrazol-4-yl)-phenyl]-3H-[1,2,3]triazolo[4,5-d]pyrimidin-5-yl}-(trans)-cyclohexane-1,4-diamine trifluoroacetate] had an IC50 below 1000 nM.
`COc1ccc(-n2nnc3cnc(N[C@@H]4CC[C@](O)(C(F)(F)F)C4)nc32)cc1` (relative stereo) [A67, trans-3-[3-(4-methoxy-phenyl)-3H-[1,2,3]triazolo[4,5-d]pyrimidin-5-ylamino]-1-trifluoromethyl-cyclopentanol] yielded a 50% inhibitory concentration (IC50) of 1000 to 5000 nM.
`COc1ccc(-n2nnc3cnc(N[C@H]4C[C@H](NC(=O)OC(C)(C)C)C4)nc32)cc1` [A32, {trans-3-[3-(4-methoxy-phenyl)-3H-[1,2,3]triazolo[4,5-d]pyrimidin-5-ylamino]-cyclobutyl}-carbamic acid tert-butyl ester] had a concentration for half-maximal inhibition (IC50) below 1000 nM.
Compound `COc1ccc(-n2nnc3cnc(NCCCN4CCCC4)nc32)cc1` [A61, [3-(4-methoxy-phenyl)-3H-[1,2,3]triazolo[4,5-d]pyrimidin-5-yl]-(3-pyrrolidin-1-yl-propyl)-amine] yielded a half-maximal inhibitory concentration (IC50) of 5000 to 10000 nM.
Under `COc1ccc(-n2nnc3cnc(N[C@H]4C[C@@H](N)C4)nc32)cc1` [A31, cis-N-[3-(4-methoxy-phenyl)-3H-[1,2,3]triazolo[4,5-d]pyrimidin-5-yl]-cyclobutane-1,3-diamine hydrochloride] stands 1000 to 5000 nM; under `COc1ccc(-n2nnc3cnc(N[C@H]4CCNC4)nc32)cc1` [A77, [3-(4-methoxy-phenyl)-3H-[1,2,3]triazolo[4,5-d]pyrimidin-5-yl]-(S)-pyrrolidin-3-yl-amine hydrochloride], 5000 to 10000 nM; under `COc1ccc(-n2nnc3cnc(N[C@H]4CC[C@H](SC)C4)nc32)cc1` (relative stereo) [A262, [3-(4-methoxy-phenyl)-3H-[1,2,3]triazolo[4,5-d]pyrimidin-5-yl]-((trans)-3-methylsulfanyl-cyclopentyl)-amine], below 1000 nM.
As for `COCCn1cc(-n2nnc3cnc(N[C@@H]4CCC[C@@H](C(N)=O)C4)nc32)cn1` (relative stereo) [A165, (trans)-3-{3-[1-(2-methoxy-ethyl)-1H-pyrazol-4-yl]-3H-[1,2,3]triazolo[4,5-d]pyrimidin-5-ylamino}-cyclohexanecarboxylic acid amide], the figure is 1000 to 5000 nM; as for `COc1ccc(-n2nnc3cnc(N[C@H]4CC[C@H](CCO)CC4)nc32)cc1` [A72, trans-2-{4-[3-(4-methoxy-phenyl)-3H-[1,2,3]triazolo[4,5-d]pyrimidin-5-ylamino]-cyclohexyl}-ethanol], below 1000 nM.
With `COc1ccc(-n2nnc3cnc(N[C@H]4CC[C@@H](CCO)CC4)nc32)cc1` [A73, cis-2-{4-[3-(4-methoxy-phenyl)-3H-[1,2,3]triazolo[4,5-d]pyrimidin-5-ylamino]-cyclohexyl}-ethanol], the half-maximal inhibitory concentration (IC50) was below 1000 nM.
As for `COc1ccc(-n2nnc3cnc(NCCCOCCCN)nc32)cc1` [A76, [3-(3-amino-propoxy)-propyl]-[3-(4-methoxy-phenyl)-3H-[1,2,3]triazolo[4,5-d]pyrimidin-5-yl]-amine formate], the figure is below 1000 nM; as for `COCCOc1ccc(-n2nnc3cnc(N[C@@H]4CC[C@H](C(N)=O)C4)nc32)cc1` [A166, (1S,3R)-3-{3-[4-(2-methoxy-ethoxy)-phenyl]-3H-[1,2,3]triazolo[4,5-d]pyrimidin-5-ylamino}-cyclopentanecarboxylic acid amide], below 1000 nM; as for `COc1ccc(-n2nnc3cnc(NC(C)C)nc32)cc1` [A2, Isopropyl-[3-(4-methoxy-phenyl)-3H-[1,2,3]triazolo[4,5-d]pyrimidin-5-yl]-amine], below 1000 nM.
In the case of `Nc1cnn(CCCNc2ncc3nnn(-c4ccc(OCCC(=O)O)cc4)c3n2)c1` [A47, 3-(4-{5-[3-(4-amino-pyrazol-1-yl)-propylamino]-[1,2,3]triazolo[4,5-d]pyrimidin-3-yl}-phenoxy)-propionic acid], the half-maximal inhibitory concentration (IC50) was below 1000 nM.
With `COc1ccc(-n2nnc3cnc(NC4CN(C(=O)CN(C)C)C4)nc32)cc1` [A62, 2-dimethylamino-1-{3-[3-(4-methoxy-phenyl)-3H-[1,2,3]triazolo[4,5-d]pyrimidin-5-ylamino]-azetidin-1-yl}-ethanone], the IC50 lay in the range of 1000 to 5000 nM.
Under `COc1ccc(-n2nnc3cnc(NC4C5CN(C)CC54)nc32)cc1` (stereo not shown) [A19, [3-(4-methoxy-phenyl)-3H-[1,2,3]triazolo[4,5-d]pyrimidin-5-yl]-(3-methyl-3-aza-bicyclo[3.1.0]hex-6-yl)-amine] stands 5000 to 10000 nM.
Under `COc1ccc(-n2nnc3cnc(N[C@H]4CC[C@H](O)CC4)nc32)cc1` [A6, trans-4-[3-(4-methoxy-phenyl)-3H-[1,2,3]triazolo[4,5-d]pyrimidin-5-ylamino]-cyclohexanol] stands below 1000 nM; under `Cn1cc(-c2ccc(-n3nnc4cnc(N[C@H]5CC[C@H](O)C5)nc43)nc2)cn1` (relative stereo) [A94, trans-3-{3-[5-(1-methyl-1H-pyrazol-4-yl)-pyridin-2-yl]-3H-[1,2,3]triazolo[4,5-d]pyrimidin-5-ylamino}-cyclopentanol], below 1000 nM.
In turn, `COc1ccc(-n2nnc3cnc(NCCOCCN)nc32)cc1` [A74, [2-(2-amino-ethoxy)-ethyl]-[3-(4-methoxy-phenyl)-3H-[1,2,3]triazolo[4,5-d]-pyrimidin-5-yl]-amine formate] registered a half-inhibitory concentration (IC50) of 1000 to 5000 nM.
Turning to `COc1ccc(-n2nnc3cnc(NC4CCCNC4)nc32)cc1` (stereo not shown) [A43, [3-(4-methoxy-phenyl)-3H-[1,2,3]triazolo[4,5-d]pyrimidin-5-yl]-piperidin-3-yl-amine hydrochloride], the concentration for half-maximal inhibition (IC50) was 1000 to 5000 nM.
`COc1ccc(-n2nnc3cnc(NCCc4ccccc4)nc32)cc1` [B10, [3-(4-methoxy-phenyl)-3H-[1,2,3]triazolo[4,5-d]pyrimidin-5-yl]-phenethyl-amine] returned a half-maximal inhibitory concentration (IC50) of 1000 to 5000 nM.
As for `COc1ccc(-n2nnc3cnc(NC4CCCN(C(C)=O)C4)nc32)cc1` (stereo not shown) [A42, 1-{3-[3-(4-methoxy-phenyl)-3H-[1,2,3]triazolo[4,5-d]pyrimidin-5-ylamino]-piperidin-1-yl}-ethanone], the figure is below 1000 nM.
As for `COc1ccc(-n2nnc3cnc(NC4CCN(CCN5CCOCC5)CC4)nc32)cc1` [A78, [3-(4-methoxy-phenyl)-3H-[1,2,3]triazolo[4,5-d]pyrimidin-5-yl]-[1-(2-morpholin-4-yl-ethyl)-piperidin-4-yl]-amine], the figure is 1000 to 5000 nM; as for `NC(=O)[C@@H]1CC[C@@H](Nc2ncc3nnn(-c4ccc(-c5cnn(CCO)c5)cn4)c3n2)C1` [A261, (1R,3R)-3-(3-{5-[1-(2-hydroxy-ethyl)-1H-pyrazol-4-yl]-pyridin-2-yl}-3H-[1,2,3]triazolo[4,5-d]pyrimidin-5-ylamino)-cyclopentanecarboxylic acid amide], below 1000 nM.
